According to patent US20250101108A1, “METHODS TO ENHANCE THERAPEUTIC EFFICACY IN MELANOMA VIA MODULATION OF CELL SURFACE PD-L1/L2” (THE REGENTS OF THE UNIVERSITY OF CALIFORNIA, priority 2021, published 2025):
Read-outs that look alike come from different tables or passages of the source.

Columns and labels:
ITCH = ITCH (Homo sapiens, UniProt Q96J02); settings: cited from earlier work
[1] = tested on: YUMM1.7ER melanoma tumors; test: Subcutaneous syngeneic YUMM1.7ER tumors on trametinib, acquired MAPKi-resistance; format: in vivo
[2] = tested on: tumor cell-surface PD-L1/L2; test: Cell-surface PD-L1 and PD-L2 detection by cell-surface staining and FACS analysis in cultured cell lines; format: cell-based, human
Experimental: (§1) (6A) Structure and chemical name of AK087. (6B) M238R1 cells with ITCH-FLAG over-expression were treated with 0, 40, or 80 μM of AK087 for 6 days and then treated with MG-132 (20 μM) for 4 hours followed by anti-PD-L1 or anti-FLAG IP and Western blot (WB) detection of UB. (6C) 293T cells co-transfected with PD-L1-FLAG and ITCH-HA were treated with 0, 40, or 80 μM of AK087 for 6 days and then treated with MG-132 (20 μM) for 4 hours followed by anti-HA or anti-FLAG IP and WB detection of UB. (6D) M238R1 cell-surface levels of PD-L1 (left) and PD-L2 (right) as measured by cell-surface staining and FACS analysis after 0, 20, 40, 80 μM AK087 treatment for 6 days. Mean±SEMs (n=3). […]
(§2) FIGS. 9A-9N show physical and functional interactions between ITCH and PD-L1/L2. (9A) Cell-surface levels of PD-L2 in M238R1 (left) and MDA-MB-231 (right) cells stably expressing control shRNA (shCtr) or ITCH-targeting shRNAs (shiICH-1, shiICH-2), as measured by cell-surface staining and FACS analysis (PD-L2 is not detectable in H358 cells). MFI, mean fluorescence intensity. […] (9B) Cell-surface levels of PD-L2 in M238 R1 cells stably expressing empty vector (Vec) or over-expression (OE) ITCH, as measured by cell-surface staining and FACS analysis. […] (9C) Cell-surface levels of PD-L1 in M238R1, H358, and MDA-MB-231 stably expressing control shRNA (shCtr) or ITCH-targeting shRNAs (shiICH-1, shiICH-2) and M238R1 stably expressing empty vector (Vec) or OE ITCH, as measured by immunofluorescence staining. […] (9D) PD-L1 internalization in M238 R1 cells stably expressing empty vector (Vec) or OE ITCH, as measured by FACS analysis. […]

UBCH7 and ITCH [3] = biological target: T1, UBCH7 and ITCH (Homo sapiens, UniProt Q96J02); test: UBCH7-ITCH interaction, anti-FLAG immunoprecipitation and WB in HEK293T cells; format: cell-based; parameters: expressed in transfected cells; host or cells: HEK293T; settings: HA-UBCH7 and ITCH-FLAG, 100 μM for 24 or 36 hours
T1 sequence (Q96J02 whole entry): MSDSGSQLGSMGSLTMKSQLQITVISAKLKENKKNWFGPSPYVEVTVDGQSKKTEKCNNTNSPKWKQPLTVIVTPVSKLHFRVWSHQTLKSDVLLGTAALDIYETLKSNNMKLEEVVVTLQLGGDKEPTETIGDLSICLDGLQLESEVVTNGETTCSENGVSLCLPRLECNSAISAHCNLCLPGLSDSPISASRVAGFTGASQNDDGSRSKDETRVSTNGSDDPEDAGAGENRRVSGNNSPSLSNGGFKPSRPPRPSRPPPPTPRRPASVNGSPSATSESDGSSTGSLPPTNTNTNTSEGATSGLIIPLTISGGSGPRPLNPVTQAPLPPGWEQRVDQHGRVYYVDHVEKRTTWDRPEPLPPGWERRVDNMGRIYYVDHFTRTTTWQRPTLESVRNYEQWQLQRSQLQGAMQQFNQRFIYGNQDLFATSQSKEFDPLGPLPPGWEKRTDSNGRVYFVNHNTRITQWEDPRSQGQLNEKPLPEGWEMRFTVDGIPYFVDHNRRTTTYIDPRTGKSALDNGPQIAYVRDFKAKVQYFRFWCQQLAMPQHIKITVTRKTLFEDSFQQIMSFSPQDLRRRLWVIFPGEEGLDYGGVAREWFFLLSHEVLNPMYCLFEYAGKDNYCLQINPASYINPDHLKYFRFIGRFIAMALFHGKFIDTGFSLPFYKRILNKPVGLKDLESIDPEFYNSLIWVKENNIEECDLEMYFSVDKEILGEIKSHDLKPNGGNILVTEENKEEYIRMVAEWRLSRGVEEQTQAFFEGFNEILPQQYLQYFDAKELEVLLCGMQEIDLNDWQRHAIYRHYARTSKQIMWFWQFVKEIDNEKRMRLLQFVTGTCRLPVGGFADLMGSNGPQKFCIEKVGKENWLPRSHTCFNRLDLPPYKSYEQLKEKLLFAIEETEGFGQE
T1 sequence (P68036 whole entry partner): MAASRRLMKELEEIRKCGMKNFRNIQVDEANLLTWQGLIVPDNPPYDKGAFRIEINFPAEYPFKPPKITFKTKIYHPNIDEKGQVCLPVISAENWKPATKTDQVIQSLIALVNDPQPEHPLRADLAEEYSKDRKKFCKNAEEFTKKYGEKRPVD

total PD-L1 = test: Western blots of total PD-L1 protein levels in cultured cell lines; format: cell-based, human; settings: for total PD-L1 protein level: 20, 40, 80 μM for 6 days
Experimental: as §1, §2

NILER1-4 = test: Response of NILER1-4 melanoma to immune checkpoint blockade; format: in vivo, murine; settings: AK087 15 mg/kg/day subcutaneously with anti-PD-1, anti-CTLA-4, aLAG-3
Experimental: (§3) Data are derived from two murine models of melanoma, YUMM1.ER, Braf^V600MUT melanoma, and NILER1-4, […] melanoma. (15A) YUMM1.7ER. n=9-10 per group. Means±SEM. Anti-PD-1 200 μg/mouse, anti-CTLA-4 200 μg/mouse three times a week for the first two weeks, then change to twice/week treatment. AK087 10 mg/kg/day (Subcutaneously, daily) administration. *p<0.05, student's t test. (15B) NILER1-4. n=8-10 per group. Means±SEM. Anti-PD-1 200 μg/mouse, anti-CTLA-4 200 g/mouse, aLAG-3 200 μg/mouse three times a week for the first two weeks, then change to twice/week treatment. AK087 15 mg/kg/day (Subcutaneously, daily) administration. *p<0.05, student's t test.
as §3, with “melanoma. […]” for “melanoma. (15A) YUMM1.7ER. n=9-10 per group.”, “then changed” for “then change”, “test. […]” for “test. (15B) NILER1-4. n=8-10 per group.”, “200 μg/mouse,” for “200 g/mouse,”

UBCH7 and ITCH [4] = biological target: T1, UBCH7 and ITCH; test: UBCH7-ITCH interaction, proximity ligation assay (PLA) in cancer cell lines; format: cell-based; settings: M229R5, H358, M238R1 and M238, 100 μM for 2 days
Experimental: Right panel: M229R5, H358, M238R1 and M238 cells were treated with DMSO or AK087 (100 μM) for 2 days followed by proximity ligation assay (PLA) using anti-UBCH7 and anti-ITCH antibodies. Signal dots per cell was quantified by the Duolink ImageTool. For bar graph: n=2-3. Means±SEM. *p<0.05, **p<0.01, student's t test.
For bar graph: n=2-3. Means #SEM. *p<0.05, **p<0.01, student's t test.

YUMM1.7ER = test: Response of YUMM1.7ER melanoma to immune checkpoint blockade; format: in vivo, murine; settings: AK087 10 mg/kg/day subcutaneously with anti-PD-1, anti-CTLA-4
Experimental: as §3
as §3, with “melanoma. […]” for “melanoma. (15A) YUMM1.7ER. n=9-10 per group.”, “then changed” for “then change”, “test. […]” for “test. (15B) NILER1-4. n=8-10 per group.”, “200 μg/mouse,” for “200 g/mouse,”

ITCH-FLAG = biological target: T2, ITCH-FLAG (Homo sapiens, UniProt Q96J02); test: Ubiquitination assay (IP and WB detection of UB) in M238 R1 cells expressing ITCH-FLAG; format: cell-based; settings: 0, 40, 80 μM for 6 days, then MG-132 20 μM 4 hours
T2 construct: expressed in transfected cells
T2 sequence (Q96J02 whole entry): as the sequence (Q96J02 whole entry) above
Experimental: as §1

endogenous PD-L1 = test: Ubiquitination assay (anti-PD-L1 IP and WB detection of UB) in M238 R1 cells; format: cell-based, human; settings: 0, 40, 80 μM for 6 days, then MG-132 20 μM 4 hours
Experimental: as §1

[5] = AK087 10 mg/kg/day for 17 days, co-treatment with trametinib
[6] = M238 R1 Vec or OE ITCH, 16 hours

Sequence of ITCH (Q96J02 whole entry, species assumed): as the sequence (Q96J02 whole entry) above

**Q.** With `Cc1ccc(N2C(=O)C(Cl)=C(N3CCCCC3)C2=O)cc1` [RL 2, 3-chloro-1-(4-methylphenyl)-4-piperidin-1-yl-1H-pyrrole-2,5-dione] as the molecule, how does the “Activity (%)” value (ITCH; Screening concentration 10 uM) read?
**A.** Its value is 141%.

**Q.** For `Cc1ccc(NS(=O)(=O)c2ccccc2)cc1C` [RL 3, N-(3,4-dimethylphenyl)benzenesulfonamide], which “Activity (%)” value (ITCH; Screening concentration 10 uM) is on record?
**A.** The value was 140%.

**Q.** For `Cc1ccc(S(=O)(=O)c2cc3ccc(C)n3cn2)cc1` [RL 4, 4-methylphenyl 7-methylpyrrolo[1,2-c]pyrimidin-3-yl sulfone], which “Activity (%)” value (ITCH; Screening concentration 10 uM) is on record?
**A.** Its value is 145%.

**Q.** Which “body weight loss / toxicities” value [1, 5] does the source give for `COc1cc2oc(=O)cc(C)c2c(OC)c1OC` [RL 5, 5,6,7-trimethoxy-4-methyl-2H-chromen-2-one] here?
**A.** Its value is “no appreciable body weight loss or superficial evidence of toxicities”.

**Q.** What about the complete responses [1, 5] of the same molecule?
**A.** Its complete responses is 5 of 9.

**Q.** What about the “acquired MAPKi-resistance” value ([1]; AK087 10 mg/kg/day subcutaneously for 17 days, co-treatment with trametinib 0.45 mg/kg/d) of the same molecule?
**A.** Its value is “suppressed acquired MAPKi-resistance”.

**Q.** What about the “tumor cell-surface PD-L1” value ([2]; H358, 0, 20, 40, 80 μM for 6 days) of the same molecule?
**A.** Its value is “dose-dependently reduced”.

**Q.** And the “tumor cell-surface PD-L1/L2” value ([2]; M238 R1, 0, 20, 40, 80 μM for 6 days)?
**A.** The value was “dose-dependently reduced”.

**Q.** What about the “interaction between UBCH7 and ITCH” value (UBCH7 and ITCH [3]) of the same molecule?
**A.** The value was “enhances the interaction”.

**Q.** What about the “total PD-L1 protein level” value (total PD-L1; H358) of the same molecule?
**A.** Its value is “dose-dependently reduced”.

**Q.** And the “total PD-L1 protein level” value (total PD-L1; M238 R1)?
**A.** Its value is “dose-dependently reduced”.

**Q.** What about the “response to immune checkpoint blockade” value (NILER1-4) of the same molecule?
**A.** Its value is “improves responses”.

**Q.** What about the “interaction between UBCH7 and ITCH” value (UBCH7 and ITCH [4]) of the same molecule?
**A.** The value was “enhances the interaction”.

**Q.** And the “response to immune checkpoint blockade” value (YUMM1.7ER)?
**A.** The value was “improves responses”.

**Q.** And the “poly/auto-ubiquitination of ITCH-FLAG” value (ITCH-FLAG)?
**A.** Its value is “dose-dependently enhanced”.

**Q.** And the “Activity (%)” value (ITCH; Screening concentration 10 uM)?
**A.** Its value is 140%.

**Q.** What about the “enhancement of auto-ubiquitination of ITCH” value (ITCH; reconstituted recombinant proteins, small molecule screen (ref. 25)) of the same molecule?
**A.** The value was 140%.

**Q.** And the “poly-ubiquitination of endogenous PD-L1” value (endogenous PD-L1)?
**A.** Its value is “enhancing the poly-ubiquitination”.

**Q.** Which “Activity (%)” value (ITCH; Screening concentration 10 uM) does the source give for `Cc1[nH]nc2c1C(c1ccccc1OC(C)C)C(C#N)=C(N)O2` (stereo not shown) [RL 6, 6-amino-3-methyl-4-{2-[(1-methylethyl)oxy]phenyl}-2,4-dihydropyrano[2,3-c]pyrazole-5-carbonitrile] here?
**A.** The value was 194%.

**Q.** With `CCN(CC)CCCC(C)Nc1ccnc2cc(Cl)ccc12` (stereo not shown) [chloroquine, reference compound] as the molecule, how does the “down-regulation of cell-surface PD-L1 levels elicited by ITCH over-expression” value [2, 6] read?
**A.** The value was “rescued down-regulation”.

**Q.** And the “down-regulation of total PD-L1 levels elicited by ITCH over-expression” value (total PD-L1; [6])?
**A.** The value was “rescued down-regulation”.

**Q.** For “CHLORO- PHYLLIDE Cu COMPLEX Na SALT [RL 1]”, which “Activity (%)” value (ITCH; Screening concentration 20 uM) is on record?
**A.** The value was 147%.
